Tests used:
[1] = test system: S. aureus DSM 20231; assay: fitness (endpoint OD595 vs no drug) (fraction); higher = more growth
Method in brief: (§1)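 Fitness compares growth at the stationary-phase transition with the robust mean of no-drug control wells, as a ratio of optical densities. The ratio is capped at 1. Wells of 384-well plates held 30 µl, or 55 µl for S. pneumoniae, inoculated at OD595 0.01. Readings at OD595 every 30 min for 14 h at 37 °C were corrected against the first reading.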

[2] = test system: S. aureus Newman; assay: as above
Method in brief: as §1

[3] = test system: S. pneumoniae D39V; assay: as above
Method in brief: as §1

[4] = test system: B. subtilis 168; assay: Bliss interaction score (quartile over a dose matrix) (fitness difference); higher = more antagonism (negative = synergy)
Method in brief: (§2)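 Each OD595 reading at entry into stationary phase was scaled to the robust mean of the untreated wells on its plate, with a ceiling of 1. These ratios define fitness, and single-drug fitness was inferred from combinations. The Bliss score compares observed fitness with the product-based expectation and is reported as quartiles across all replicate types, technical, biological and donor/recipient.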

[5] = test system: S. aureus DSM 20231; assay: as above
Method in brief: as §2

[6] = test system: S. aureus Newman; assay: as above
Method in brief: as §2

[7] = test system: S. pneumoniae D39V; assay: as above
Method in brief: as §2
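For Bliss interaction score (quartile over a dose matrix) in this document: first quartile when negative (synergy) and third quartile when positive (antagonism).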
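For fitness (endpoint OD595 vs no drug) in this document: OD595 on entry to stationary phase over no-drug wells; at most 1.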

CO/N=C(\C(=O)N[C@@H]1C(=O)N2C(C(=O)[O-])=C(C[N+]3(C)CCCC3)CS[C@H]12)c1csc(N)n1 [Cefepime] + Cc1cc(NS(=O)(=O)c2ccc(N)cc2)no1 [Sulfamethoxazol]
fitness
Settings	first compound 0.007 µg/mL	first compound 0.014 µg/mL	first compound 0.028 µg/mL	first compound 0.125 µg/mL	first compound 0.25 µg/mL	first compound 0.5 µg/mL
[1], partner 1 µg/mL	–	–	–	0.839	0.739	0.79
[1], partner 2 µg/mL	–	–	–	0.88	0.766	0.84
[1], partner 4 µg/mL	–	–	–	0.874	0.779	0.823
[2], partner 1 µg/mL	–	–	–	0.956	0.875	0.745
[2], partner 2 µg/mL	–	–	–	0.908	0.843	0.773
[2], partner 4 µg/mL	–	–	–	0.964	0.863	0.789
[3], partner 1 µg/mL	0.978	0.991	0.887	–	–	–
[3], partner 2 µg/mL	0.982	0.986	0.922	–	–	–
[3], partner 4 µg/mL	0.98	0.992	0.892	–	–	–

fitness, one replicate
Settings	first compound 0.0078 µg/mL	first compound 0.0155 µg/mL	first compound 0.031 µg/mL	first compound 0.125 µg/mL	first compound 0.25 µg/mL	first compound 0.5 µg/mL
[2], partner 8 µg/mL	–	–	–	0.981	0.972	0.854
[3], partner 1 µg/mL	≥ 1	0.99	0.842	–	–	–
[3], partner 2 µg/mL	≥ 1	≥ 1	0.866	–	–	–
[3], partner 4 µg/mL	0.959	0.914	0.804	–	–	–

Settings	Bliss interaction score
[4]	0.0793
[5]	-0.0768
[6]	-0.0727
[7]	0.034

CO/N=C(\C(=O)N[C@@H]1C(=O)N2C(C(=O)[O-])=C(C[N+]3(C)CCCC3)CS[C@H]12)c1csc(N)n1 [Cefepime] + Cc1ncc([N+](=O)[O-])n1CCO [Metronidazole]
Settings	fitness
[1], first compound 0.125 µg/mL, partner 0.625 µg/mL	0.981
[1], first compound 0.125 µg/mL, partner 1.25 µg/mL	≥ 1
[1], first compound 0.125 µg/mL, partner 2.5 µg/mL	≥ 1
[1], first compound 0.25 µg/mL, partner 0.625 µg/mL	0.958
[1], first compound 0.25 µg/mL, partner 1.25 µg/mL	≥ 1
[1], first compound 0.25 µg/mL, partner 2.5 µg/mL	≥ 1
[1], first compound 0.5 µg/mL, partner 0.625 µg/mL	0.925
[1], first compound 0.5 µg/mL, partner 1.25 µg/mL	0.958
[1], first compound 0.5 µg/mL, partner 2.5 µg/mL	0.928
[2], first compound 0.125 µg/mL, partner 0.625 µg/mL	0.942
[2], first compound 0.125 µg/mL, partner 0.781 µg/mL	0.957
[2], first compound 0.125 µg/mL, partner 1.25 µg/mL	0.922
[2], first compound 0.125 µg/mL, partner 1.562 µg/mL	0.914
[2], first compound 0.125 µg/mL, partner 2.5 µg/mL	0.957
[2], first compound 0.125 µg/mL, partner 3.124 µg/mL	0.924
[2], first compound 0.25 µg/mL, partner 0.625 µg/mL	0.855
[2], first compound 0.25 µg/mL, partner 0.781 µg/mL	0.854
[2], first compound 0.25 µg/mL, partner 1.25 µg/mL	0.876
[2], first compound 0.25 µg/mL, partner 1.562 µg/mL	0.844
[2], first compound 0.25 µg/mL, partner 2.5 µg/mL	0.814
[2], first compound 0.25 µg/mL, partner 3.124 µg/mL	0.83
[2], first compound 0.5 µg/mL, partner 0.625 µg/mL	0.799
[2], first compound 0.5 µg/mL, partner 0.781 µg/mL	0.761
[2], first compound 0.5 µg/mL, partner 1.25 µg/mL	0.752
[2], first compound 0.5 µg/mL, partner 1.562 µg/mL	0.731
[2], first compound 0.5 µg/mL, partner 2.5 µg/mL	0.749
[2], first compound 0.5 µg/mL, partner 3.124 µg/mL	0.764
[3], first compound 0.007 µg/mL, partner 1.25 µg/mL	≥ 1
[3], first compound 0.007 µg/mL, partner 2.5 µg/mL	≥ 1
[3], first compound 0.007 µg/mL, partner 5 µg/mL	≥ 1
[3], first compound 0.0078 µg/mL, partner 1.073 µg/mL	0.998
[3], first compound 0.0078 µg/mL, partner 2.145 µg/mL	0.943
[3], first compound 0.0078 µg/mL, partner 4.29 µg/mL	0.988
[3], first compound 0.014 µg/mL, partner 1.25 µg/mL	≥ 1
[3], first compound 0.014 µg/mL, partner 2.5 µg/mL	≥ 1
[3], first compound 0.014 µg/mL, partner 5 µg/mL	≥ 1
[3], first compound 0.0155 µg/mL, partner 1.073 µg/mL	0.977
[3], first compound 0.0155 µg/mL, partner 4.29 µg/mL	0.968
[3], first compound 0.028 µg/mL, partner 1.25 µg/mL	0.957
[3], first compound 0.028 µg/mL, partner 2.5 µg/mL	0.964
[3], first compound 0.028 µg/mL, partner 5 µg/mL	0.912
[3], first compound 0.031 µg/mL, partner 1.073 µg/mL	0.939
[3], first compound 0.031 µg/mL, partner 2.145 µg/mL	0.9
[3], first compound 0.031 µg/mL, partner 4.29 µg/mL	0.942

Settings	Bliss interaction score
[4]	0.0894
[5]	0.047
[6]	-0.0502
[7]	0.0181

Source: the supplement of paper PMC10627819
